target: Cav3.2 (Homo sapiens, UniProt O95180); assay: Calcium flux FLIPR assay, HEK293 cells recombinantly expressing Cav3.2; assay type: cell-based; conditions: Cav3.2-channel, Ca2+ entry stimulated by 10 mM CaCl2
In short: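 Fluo-4-loaded HEK293 cells stably expressing Cav3.2, seeded overnight at 37 °C; compounds diluted in TEAC buffer (pH 7.2) and preincubated 3 min before Ca2+ entry triggered with CaCl2 at 10 mM final. Area under FLIPR fluorescence trace fitted sigmoidally; IC50 relative to vehicle signal.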

Sequence of Cav3.2 (O95180 whole entry, looked up): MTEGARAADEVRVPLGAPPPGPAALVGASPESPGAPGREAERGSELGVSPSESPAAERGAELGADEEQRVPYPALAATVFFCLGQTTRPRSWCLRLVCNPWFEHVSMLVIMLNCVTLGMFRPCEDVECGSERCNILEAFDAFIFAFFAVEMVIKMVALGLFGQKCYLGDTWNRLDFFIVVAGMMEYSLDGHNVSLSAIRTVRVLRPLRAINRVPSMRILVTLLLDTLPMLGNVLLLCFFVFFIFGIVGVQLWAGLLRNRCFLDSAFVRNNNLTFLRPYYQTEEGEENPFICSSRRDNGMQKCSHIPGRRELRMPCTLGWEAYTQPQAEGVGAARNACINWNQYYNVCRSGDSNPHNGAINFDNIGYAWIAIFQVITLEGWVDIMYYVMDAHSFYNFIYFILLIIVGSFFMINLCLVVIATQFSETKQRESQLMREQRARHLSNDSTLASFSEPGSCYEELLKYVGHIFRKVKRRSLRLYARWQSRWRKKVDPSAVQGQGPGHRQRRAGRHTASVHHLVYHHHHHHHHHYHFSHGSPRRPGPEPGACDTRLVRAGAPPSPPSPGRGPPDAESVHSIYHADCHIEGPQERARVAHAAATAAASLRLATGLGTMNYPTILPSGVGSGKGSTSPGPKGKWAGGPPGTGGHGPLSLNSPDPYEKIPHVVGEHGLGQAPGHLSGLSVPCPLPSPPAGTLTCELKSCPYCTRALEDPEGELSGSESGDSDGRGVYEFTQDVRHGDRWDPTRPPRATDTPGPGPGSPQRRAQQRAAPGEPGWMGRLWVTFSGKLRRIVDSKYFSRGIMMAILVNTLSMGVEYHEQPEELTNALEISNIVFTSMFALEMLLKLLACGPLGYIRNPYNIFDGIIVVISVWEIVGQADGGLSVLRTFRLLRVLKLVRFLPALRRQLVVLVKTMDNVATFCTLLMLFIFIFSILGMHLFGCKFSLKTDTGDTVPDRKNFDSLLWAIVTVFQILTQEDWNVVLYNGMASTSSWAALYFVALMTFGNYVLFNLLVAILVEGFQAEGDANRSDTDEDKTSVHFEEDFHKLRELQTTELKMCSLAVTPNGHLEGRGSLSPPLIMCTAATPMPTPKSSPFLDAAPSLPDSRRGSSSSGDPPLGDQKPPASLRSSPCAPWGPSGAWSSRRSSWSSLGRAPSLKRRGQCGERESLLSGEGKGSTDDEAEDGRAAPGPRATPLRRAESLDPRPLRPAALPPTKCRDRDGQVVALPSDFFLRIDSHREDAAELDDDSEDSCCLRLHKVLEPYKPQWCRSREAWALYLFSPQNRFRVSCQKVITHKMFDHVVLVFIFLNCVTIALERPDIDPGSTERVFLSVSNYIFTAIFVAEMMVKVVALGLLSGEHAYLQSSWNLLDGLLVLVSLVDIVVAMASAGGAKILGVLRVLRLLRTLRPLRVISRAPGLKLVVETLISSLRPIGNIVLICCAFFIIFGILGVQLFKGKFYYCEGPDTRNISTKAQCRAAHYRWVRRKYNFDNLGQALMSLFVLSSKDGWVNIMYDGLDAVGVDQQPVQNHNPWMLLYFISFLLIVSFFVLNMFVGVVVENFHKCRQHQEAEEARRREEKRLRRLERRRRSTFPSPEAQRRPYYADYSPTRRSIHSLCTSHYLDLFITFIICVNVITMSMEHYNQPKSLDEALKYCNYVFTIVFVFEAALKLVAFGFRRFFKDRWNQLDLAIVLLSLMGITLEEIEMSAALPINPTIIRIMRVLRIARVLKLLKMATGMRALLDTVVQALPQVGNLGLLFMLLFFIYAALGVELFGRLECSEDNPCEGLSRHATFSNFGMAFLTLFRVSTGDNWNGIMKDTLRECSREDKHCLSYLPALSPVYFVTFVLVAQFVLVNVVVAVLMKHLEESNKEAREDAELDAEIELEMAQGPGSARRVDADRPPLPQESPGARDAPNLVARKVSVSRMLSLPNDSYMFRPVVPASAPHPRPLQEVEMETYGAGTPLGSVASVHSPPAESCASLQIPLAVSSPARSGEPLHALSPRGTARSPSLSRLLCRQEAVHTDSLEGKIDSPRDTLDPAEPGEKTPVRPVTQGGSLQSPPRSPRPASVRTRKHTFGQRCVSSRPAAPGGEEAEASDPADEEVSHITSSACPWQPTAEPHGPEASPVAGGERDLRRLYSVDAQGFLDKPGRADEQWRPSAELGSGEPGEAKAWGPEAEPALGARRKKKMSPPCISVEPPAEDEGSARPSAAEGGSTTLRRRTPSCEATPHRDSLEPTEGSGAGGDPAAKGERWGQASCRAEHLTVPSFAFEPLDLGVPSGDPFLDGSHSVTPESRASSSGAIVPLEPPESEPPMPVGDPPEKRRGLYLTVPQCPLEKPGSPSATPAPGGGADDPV

Row | IC50 [nM] | SMILES
1 | 180 | COc1cc(Cn2ncc(NC(=O)Cc3ccc4c(c3)c(C)cn4C)n2)cc(F)c1F [Example 240, N-[2-(3,4-Difluoro-5-methoxy-benzyl)-2H-[1,2,3]triazol-4-yl]-2-(1,3-dimethyl-1H-indol-5-yl)-acetamide]
2 | 100 | N#Cc1ccc(Cn2ncc(NC(=O)Cc3ccc(OCC4(F)COC4)cc3)n2)cc1F [Example 175, N-[2-(4-Cyano-3-fluoro-benzyl)-2H-[1,2,3]triazol-4-yl]-2-[4-(3-fluoro-oxetan-3-ylmethoxy)-phenyl]-acetamide]
3 | 86 | COc1c(F)cc(Cn2ncc(NC(=O)Cc3ccc(OCC4COC4)cc3)n2)cc1F [Example 141, N-[2-(3,5-Difluoro-4-methoxy-benzyl)-2H-[1,2,3]triazol-4-yl]-2-[4-(oxetan-3-ylmethoxy)-phenyl]-acetamide]
4 | 13 | COc1c(F)cc(Cn2ncc(NC(=O)Cc3ccc4c(ccn4C)c3)n2)cc1F [Example 77, N-[2-(3,5-Difluoro-4-methoxy-benzyl)-2H-[1,2,3]triazol-4-yl]-2-(1-methyl-1H-indol-5-yl)-acetamide]
5 | 11 | Cc1cc2cc(CC(=O)Nc3cnn(Cc4ccc(F)c(F)c4)n3)ccc2[nH]1 [Example 31, N-[2-(3,4-Difluoro-benzyl)-2H-[1,2,3]triazol-4-yl]-2-(2-methyl-1H-indol-5-yl)-acetamide]
6 | 63 | CCOc1ccc(Cn2ncc(NC(=O)Cc3ccc4c(cnn4C)c3)n2)cc1 [Example 46, N-[2-(4-Ethoxy-benzyl)-2H-[1,2,3]triazol-4-yl]-2-(1-methyl-1H-indazol-5-yl)-acetamide]
7 | 92 | Cc1cc(Cn2ncc(NC(=O)Cc3ccc(C4(F)COC4)cc3)n2)ccc1C#N [Example 235, N-[2-(4-Cyano-3-methyl-benzyl)-2H-[1,2,3]triazol-4-yl]-2-[4-(3-fluoro-oxetan-3-yl)-phenyl]-acetamide]
8 | 14 | Cc1cn(C)c2ccc(CC(=O)Nc3cnn(Cc4ccc(C#N)c(F)c4)n3)cc12 [Example 140, N-[2-(4-Cyano-3-fluoro-benzyl)-2H-[1,2,3]triazol-4-yl]-2-(1,3-dimethyl-1H-indol-5-yl)-acetamide]
9 | 47 | COc1ccc(Cn2ncc(NC(=O)Cc3ccc(N4CCC(F)(F)C4)nc3)n2)cc1F [Example 126, 2-[6-(3,3-Difluoro-pyrrolidin-1-yl)-pyridin-3-yl]-N-[2-(3-fluoro-4-methoxy-benzyl)-2H-[1,2,3]triazol-4-yl]-acetamide]
10 | 7.4 | Cn1ccc2cc(CC(=O)Nc3cnn(Cc4ccc(OC(F)(F)F)cc4)n3)ccc21 [Example 91, 2-(1-Methyl-1H-indol-5-yl)-N-[2-(4-trifluoromethoxy-benzyl)-2H-[1,2,3]triazol-4-yl]-acetamide]
11 | 180 | Cn1ncc2ccc(CC(=O)Nc3cnn(Cc4ccc(C#N)c(F)c4)n3)cc21 [Example 132, N-[2-(4-Cyano-3-fluoro-benzyl)-2H-[1,2,3]triazol-4-yl]-2-(1-methyl-1H-indazol-6-yl)-acetamide]
12 | 24 | N#Cc1ccc(Cn2ncc(NC(=O)Cc3ccc(OCC4CC(F)(F)C4)cc3)n2)cc1 [Example 238, N-[2-(4-Cyano-benzyl)-2H-[1,2,3]triazol-4-yl]-2-[4-(3,3-difluoro-cyclobutylmethoxy)-phenyl]-acetamide]
13 | 45 | CC(C)c1ccc(CC(=O)Nc2cnn(Cc3ccc(C#N)c(F)c3)n2)cc1 [Example 74, N-[2-(4-Cyano-3-fluoro-benzyl)-2H-[1,2,3]triazol-4-yl]-2-(4-isopropyl-phenyl)-acetamide]
14 | 50 | Cc1cc(Cn2ncc(NC(=O)Cc3ccc(N4CCCC4)nc3)n2)ccc1C#N [Example 170, N-[2-(4-Cyano-3-methyl-benzyl)-2H-[1,2,3]triazol-4-yl]-2-(6-pyrrolidin-1-yl-pyridin-3-yl)-acetamide]
15 | 130 | N#Cc1ccc(Cn2ncc(NC(=O)Cc3ccc(C4(F)COC4)cc3)n2)cc1 [Example 198, N-[2-(4-Cyano-benzyl)-2H-[1,2,3]triazol-4-yl]-2-[4-(3-fluoro-oxetan-3-yl)-phenyl]-acetamide]
16 | 74 | CC1(c2ccc(CC(=O)Nc3cnn(Cc4ccc(C#N)c(F)c4)n3)cc2)COC1 [Example 72, N-[2-(4-Cyano-3-fluoro-benzyl)-2H-[1,2,3]triazol-4-yl]-2-[4-(3-methyl-oxetan-3-yl)-phenyl]-acetamide]
17 | 14 | CCn1ncc2cc(CC(=O)Nc3cnn(Cc4ccc(OC(F)(F)F)c(F)c4)n3)ccc21 [Example 190, 2-(1-Ethyl-1H-indazol-5-yl)-N-[2-(3-fluoro-4-trifluoromethoxy-benzyl)-2H-[1,2,3]triazol-4-yl]-acetamide]
18 | 43 | CC(C)c1ccc(CC(=O)Nc2cnn(Cc3ccc(OC(F)F)c(F)c3)n2)cc1 [Example 180, N-[2-(4-Difluoromethoxy-3-fluoro-benzyl)-2H-[1,2,3]triazol-4-yl]-2-(4-isopropyl-phenyl)-acetamide]

Row | IC50 [nM] | SMILES
19 | 17 | CCCCn1ncc2cc(CC(=O)Nc3cnn(Cc4ccc(F)c(F)c4)n3)ccc21 [Example 30, 2-(1-Butyl-1H-indazol-5-yl)-N-[2-(3,4-difluoro-benzyl)-2H-[1,2,3]triazol-4-yl]-acetamide]
20 | 46 | COc1c(F)cc(Cn2ncc(NC(=O)Cc3ccc(C(C)(C)C)cc3)n2)cc1F [Example 79, 2-(4-tert-Butyl-phenyl)-N-[2-(3,5-difluoro-4-methoxy-benzyl)-2H-[1,2,3]triazol-4-yl]-acetamide]
21 | 16 | COc1c(F)cc(Cn2ncc(NC(=O)Cc3ccc4c(c3)c(C)cn4C)n2)cc1F [Example 150, N-[2-(3,5-Difluoro-4-methoxy-benzyl)-2H-[1,2,3]triazol-4-yl]-2-(1,3-dimethyl-1H-indol-5-yl)-acetamide]
22 | 770 | COc1cc(Cn2ncc(NC(=O)Cc3ccc(C4(C(F)(F)F)CC4)cc3)n2)cc(F)c1F [Example 227, N-[2-(3,4-Difluoro-5-methoxy-benzyl)-2H-[1,2,3]triazol-4-yl]-2-[4-(1-trifluoromethyl-cyclopropyl)-phenyl]-acetamide]
23 | 190 | COc1cc(Cn2ncc(NC(=O)Cc3ccc(C4(F)COC4)cc3)n2)cc(F)c1F [Example 224, N-[2-(3,4-Difluoro-5-methoxy-benzyl)-2H-[1,2,3]triazol-4-yl]-2-[4-(3-fluoro-oxetan-3-yl)-phenyl]-acetamide]
24 | 560 | COc1cc(Cn2ncc(NC(=O)Cc3ccc4cnn(C)c4c3)n2)cc(F)c1F [Example 225, N-[2-(3,4-Difluoro-5-methoxy-benzyl)-2H-[1,2,3]triazol-4-yl]-2-(1-methyl-1H-indazol-6-yl)-acetamide]
25 | 230 | COc1cc(Cn2ncc(NC(=O)Cc3ccc4c(cnn4C)c3)n2)cc(F)c1F [Example 212, N-[2-(3,4-Difluoro-5-methoxy-benzyl)-2H-[1,2,3]triazol-4-yl]-2-(1-methyl-1H-indazol-5-yl)-acetamide]
26 | 62 | COc1ccc(Cn2ncc(NC(=O)Cc3ccc(C(C)(C)C)cc3)n2)cc1F [Example 130, 2-(4-tert-Butyl-phenyl)-N-[2-(3-fluoro-4-methoxy-benzyl)-2H-[1,2,3]triazol-4-yl]-acetamide]
27 | 120 | COc1cc(Cn2ncc(NC(=O)Cc3ccc(N4CCC(F)(F)C4)nc3)n2)cc(F)c1F [Example 219, N-[2-(3,4-Difluoro-5-methoxy-benzyl)-2H-[1,2,3]triazol-4-yl]-2-[6-(3,3-difluoro-pyrrolidin-1-yl)-pyridin-3-yl]-acetamide]
28 | 74 | CCn1ncc2cc(CC(=O)Nc3cnn(Cc4ccc(C#N)cc4)n3)ccc21 [Example 103, N-[2-(4-Cyano-benzyl)-2H-[1,2,3]triazol-4-yl]-2-(1-ethyl-1H-indazol-5-yl)-acetamide]
29 | 49 | CC(C)(C)c1ccc(CC(=O)Nc2cnn(Cc3ccc(OC(F)F)c(F)c3)n2)cc1 [Example 178, 2-(4-tert-Butyl-phenyl)-N-[2-(4-difluoromethoxy-3-fluoro-benzyl)-2H-[1,2,3]triazol-4-yl]-acetamide]
30 | 18 | Cc1cc(Cn2ncc(NC(=O)Cc3ccc(C(C)C)cc3)n2)ccc1C#N [Example 165, N-[2-(4-Cyano-3-methyl-benzyl)-2H-[1,2,3]triazol-4-yl]-2-(4-isopropyl-phenyl)-acetamide]
31 | 220 | COc1ccc(Cn2ncc(NC(=O)Cc3ccc(C4(C(F)(F)F)CC4)cc3)n2)cc1C#N [Example 203, N-[2-(3-Cyano-4-methoxy-benzyl)-2H-[1,2,3]triazol-4-yl]-2-[4-(1-trifluoromethyl-cyclopropyl)-phenyl]-acetamide]
32 | 8.8 | Cn1ncc2cc(CC(=O)Nc3cnn(Cc4ccc(OC(F)(F)F)c(F)c4)n3)ccc21 [Example 186, N-[2-(3-Fluoro-4-trifluoromethoxy-benzyl)-2H-[1,2,3]triazol-4-yl]-2-(1-methyl-1H-indazol-5-yl)-acetamide]
33 | 7.3 | O=C(Cc1ccc(N2CCC(F)(F)C2)nc1)Nc1cnn(Cc2ccc(F)c(F)c2)n1 [Example 17, N-[2-(3,4-Difluoro-benzyl)-2H-[1,2,3]triazol-4-yl]-2-[6-(3,3-difluoro-pyrrolidin-1-yl)-pyridin-3-yl]-acetamide]
34 | 320 | COc1ccc(Cn2ncc(NC(=O)Cc3ccc(C(C)(C)C)cc3)n2)cc1C#N [Example 202, 2-(4-tert-Butyl-phenyl)-N-[2-(3-cyano-4-methoxy-benzyl)-2H-[1,2,3]triazol-4-yl]-acetamide]
35 | 87 | N#Cc1ccc(Cn2ncc(NC(=O)Cc3ccc(N4CCCC4)nc3)n2)cc1F [Example 75, N-[2-(4-Cyano-3-fluoro-benzyl)-2H-[1,2,3]triazol-4-yl]-2-(6-pyrrolidin-1-yl-pyridin-3-yl)-acetamide]
36 | 15 | O=C(Cc1ccc(N2CCCC2)nc1)Nc1cnn(Cc2ccc(F)c(F)c2)n1 [Example 18, N-[2-(3,4-Difluoro-benzyl)-2H-[1,2,3]triazol-4-yl]-2-(6-pyrrolidin-1-yl-pyridin-3-yl)-acetamide]

From patent US10246426B2, “Triazole compounds as T-type calcium channel blockers” (IDORSIA PHARMACEUTICALS LTD, priority 2014, dated 2019)
